| Compound | melting point [°C] |
| --- | --- |
| CNc1nc(-c2cccc(NC(=O)c3ccc(Cl)c(Cl)c3)c2)c2cc(OC)c(OC)cc2n1 [Example 15, 4-[3-(3,4-Dichlorobenzoylamino)phenyl]-6,7-dimethoxy-2-methylaminoquinazoline] | 134 to 136 |
| CNc1nc(-c2ccc(-c3ccccc3)s2)c2cc(OC)c(OC)cc2n1 [Example 74, 6,7-Dimethoxy-2-methylamino-4-(5-phenyl-2-thienyl)quinazoline] | 201 to 203 |
| CNc1nc(-c2cccc(NC(=O)c3ccccc3)c2)c2cc(O)c(OC)cc2n1 [Example 82, 4-(3-Benzoylaminophenyl)-6-hydroxy-7-methoxy-2-methylaminoquinazoline] | 145 to 147 |
| CNc1nc(-c2cccc(NC(=O)c3ccccc3OC)c2)c2cc(OC)c(OC)cc2n1 [Example 11, 6,7-Dimethoxy-4-[3-(2-methoxybenzoylamino)phenyl]-2-methylaminoquinazoline] | 194 to 196 |
| CNc1nc(-c2cccc(NC(=O)c3ccc(Cl)cc3)c2)c2cc(OC)c(OC)cc2n1 [Example 10, 4-[3-(4-Chlorobenzoylamino)phenyl]-6,7-dimethoxy-2-methylaminoquinazoline] | 193 to 195 |
| CNc1nc(-c2cccc(NC(=O)c3ccc(OC)cc3)c2)c2cc(OC)c(OC)cc2n1 [Example 13, 6,7-Dimethoxy-4-[3-(4-methoxybenzoylamino)phenyl]-2-methylaminoquinazoline] | 219 to 221 |
| CNc1nc(-c2cccc(NC(=O)c3ccc(SC)cc3)c2)c2cc(OC)c(OC)cc2n1 [Example 26, 6,7-Dimethoxy-2-methylamino-4-[3-(4-methylthiobenzoylamino)phenyl]quinazoline] | 209 to 211 |
| CNc1nc(-c2cccc(NC(=O)c3cccc(OC)c3)c2)c2cc(OC)c(OC)cc2n1 [Example 12, 6,7-Dimethoxy-4-[3-(3-methoxybenzoylamino)phenyl]-2-methylaminoquinazoline] | 193 to 195 |
| CNc1nc(-c2cccc(NCc3ccccc3)c2)c2cc(OC)c(OC)cc2n1 [Example 38] | 146 to 148 |
| CNc1nc(-c2cccc(NC(=O)c3ccccc3)c2)c2cc(OC)c(OC)cc2n1 [Example 1, 4-(3-Benzoylaminophenyl)-6,7-dimethoxy-2-methylaminoquinazoline] | 201 to 203 |
| CNc1nc(-c2cccc(NC(=O)c3cccc(OCc4ccccc4)c3)c2)c2cc(OC)c(OC)cc2n1 [Example 22, 4-[3-(3-Benzyloxybenzoylamino)phenyl]-6,7-dimethoxy-2-methylaminoquinazoline] | 110 to 112 |
| CNc1nc(-c2cccc(NC(=O)c3ccccc3)c2)c2cc(OCc3ccccc3)c(OC)cc2n1 [Example 81, 4-(3-Benzoylaminophenyl)-6-benzyloxy-7-methoxy-2-methylaminoquinazoline] | 204 to 206 |
| CNc1nc(-c2cccc(C#Cc3cccnc3)c2)c2cc(OC)c(OC)cc2n1 [Example 67, 6,7-Dimethoxy-2-methylamino-4-[3-[2-(3-pyridyl)ethynyl]phenyl]quinazoline] | 103 to 105 |
| CNc1nc(-c2cccc(NC(=O)c3ccccn3)c2)c2cc(OC)c(OC)cc2n1 [Example 3, 6,7-Dimethoxy-2-methylamino-4-[3-(2-pyridinecarbonylamino)phenyl]quinazoline] | 175 to 177 |
| CNc1nc(-c2cccc(Oc3ccccc3)c2)c2cc(OC)c(OC)cc2n1 [Example 73, 6,7-Dimethoxy-2-methylamino-4-(3-phenoxylphenyl)quinazoline] | 157 to 159 |
| CNc1nc(-c2cccc(-c3cccnc3)c2)c2cc(OC)c(OC)cc2n1 [Example 47, 6,7-Dimethoxy-2-methylamino-4-[3-(3-pyridyl)phenyl]quinazoline] | 186 to 188 |
| CNc1nc(-c2cccc(C(=O)Nc3cccnc3)c2)c2cc(OC)c(OC)cc2n1 [Example 71, 6,7-Dimethoxy-2-methylamino-4-[3-(3-pyridyl)carbamoylphenyl]quinazoline] | 238 to 240 |
| CNc1nc(-c2cccc(NC(=O)c3ccccc3O)c2)c2cc(OC)c(OC)cc2n1 [Example 25, 6,7-Dimethoxy-4-[3-(2-hydroxybenzoylamino)phenyl]-2-methylaminoquinazoline] | 212 to 214 |
| CNc1nc(-c2cncc(C#Cc3cccnc3)c2)c2cc(OC)c(OC)cc2n1 [Example 78, 6,7-Dimethoxy-2-methylamino-4-[5-[2-(3-pyridyl)ethynyl]-3-pyridyl]quinazoline] | 208 to 211 |
| CNc1nc(-c2cccc(NC(=O)c3cc(OC)c(OC)c(OC)c3)c2)c2cc(OC)c(OC)cc2n1 [Example 19, 6,7-Dimethoxy-4-methylamino-4-[3-(3,4,5-trimethoxybenzoylamino)phenyl]quinazoline] | 122 to 124 |
| CNc1nc(-c2cccc(-c3cccc([S+](C)[O-])c3)c2)c2cc(OC)c(OC)cc2n1 (stereo not drawn) [Example 55, 6,7-Dimethoxy-2-methylamino-4-(3-methylsulfinyl-3-biphenylyl)quinazoline] | 163 to 165 |

| Compound | melting point [°C] |
| --- | --- |
| CNc1nc(-c2cccc(NC(=O)c3cccnc3)c2)c2cc(OC)c(OC)cc2n1 [Example 4, 6,7-Dimethoxy-2-methylamino-4-[3-(3-pyridinecarbonylamino)phenyl]quinazoline] | 251 to 253 |
| CNc1nc(-c2cncc(-c3ccc(SC)cc3)c2)c2cc(OC)c(OC)cc2n1 [Example 77, 6,7-Dimethoxy-2-methylamino-4-[5-(4-methylthiophenyl)-3-pyridyl]quinazoline] | 170 to 172 |
| CNc1ccc(C#Cc2cccc(-c3nc(NC)nc4cc(OC)c(OC)cc34)c2)cn1 [Example 68, 6,7-Dimethoxy-2-methylamino-4-[3-[2-(6-methylamino-3-pyridyl)ethynyl]phenyl]quinazoline] | 136 to 138 |
| CNc1nc(-c2cccc(-c3ccc(C)c(C)c3)c2)c2cc(OC)c(OC)cc2n1 [Example 48, 6,7-Dimethoxy-4-(3′,4′-dimethyl-3-biphenylyl)-2-methylaminoquinazoline] | 149 to 151 |
| CCCN(Cc1ccccc1)c1cccc(-c2nc(NC)nc3cc(OC)c(OC)cc23)c1 [Example 41, 4-[3-(N-benzyl-N-propylamino)phenyl]-6,7-dimethoxy-2-methylaminoquinazoline] | 75 to 77 |
| CNc1nc(-c2cccc(-c3cncc([S+](C)[O-])c3)c2)c2cc(OC)c(OC)cc2n1 (stereo not drawn) [Example 59, 6,7-Dimethoxy-2-methylamino-4-[3-(5-methylsulfinyl-3-pyridyl)phenyl]quinazoline] | 208 to 210 |
| CNc1nc(-c2cccc(NS(=O)(=O)c3ccccc3)c2)c2cc(OC)c(OC)cc2n1 [Example 35, 4-(3-Benzenesulfonamidephenyl)-6,7-dimethoxy-2-methylaminoquinazoline] | 230 to 232 |
| CNc1nc(-c2cccc(-n3cccc3)c2)c2cc(OC)c(OC)cc2n1 [Example 43, 6,7-Dimethoxy-2-methylamino-4-[3-(1-pyrrolyl)phenyl]quinazoline] | 199 to 201 |
| CNc1nc(-c2cncc(Br)c2)c2cc(OC)c(OC)cc2n1 [Example 76, 4-(5-Bromo-3-pyridyl)-6,7-dimethoxy-2-methylaminoquinazoline] | 228 to 230 |
| CNc1nc(-c2cccc(NC(=O)c3ccc(OCc4ccccc4)cc3)c2)c2cc(OC)c(OC)cc2n1 [Example 20, 4-[3-(4-Benzyloxybenzoylamino)phenyl]-6,7-dimethoxy-2-methylaminoquinazoline] | 110 to 112 |
| CNc1nc(-c2cccc(NC(=O)c3ccccc3OCc3ccccc3)c2)c2cc(OC)c(OC)cc2n1 [Example 24, 4-[3-(2-Benzyloxybenzoylamino)phenyl]-6,7-dimethoxy-2-methylaminoquinazoline] | 192 to 194 |
| CNc1nc(-c2cccc(C(=O)Nc3ccccc3)c2)c2cc(OC)c(OC)cc2n1 [Example 70, 6,7-Dimethoxy-2-methylamino-4-(3-phenylcarbamoylphenyl)quinazoline] | 242 to 244 |
| CNc1ccc(C#Cc2cncc(-c3nc(NC)nc4cc(OC)c(OC)cc34)c2)cn1 [Example 79, 6,7-Dimethoxy-2-methylamino-4-[5-[2-(6-methylamino-3-pyridyl)ethynyl]-3-pyridyl]quinazoline] | 160 to 162 |
| CNc1nc(-c2cccc(NC(=O)C3CC3)c2)c2cc(OC)c(OC)cc2n1 [Example 16, 4-(3-Cyclopropanoylaminophenyl)-6,7-dimethoxy-2-methylaminoquinazoline] | 205 to 207 |
| CNc1nc(-c2cccc(N(C)C(=O)c3ccccc3)c2)c2cc(OC)c(OC)cc2n1 [Example 42, 4-[3-(N-benzoyl-N-methylamino)phenyl]-6,7-dimethoxy-2-methylaminoquinazoline] | 198 to 200 |
| CNc1nc(-c2cccc(-c3ccc4nccn4c3)c2)c2cc(OC)c(OC)cc2n1 [Example 50, 6,7-Dimethoxy-4-[3-(imidazo[1.2-a]pyridine-6-yl)phenyl]-2-methylaminoquinazoline] | 237 to 239 |
| CNc1nc(-c2cccc(NC(=O)c3ccc4c(c3)OCO4)c2)c2cc(OC)c(OC)cc2n1 [Example 5, 6,7-Dimethoxy-2-methylamino-4-[3-(3,4-methylenedioxybenzoylamino)phenyl]quinazoline] | 205 to 207 |
| CNc1nc(-c2cccc(OCc3ccccc3)c2)c2cc(OC)c(OC)cc2n1 [Example 72, 4-(3-Benzyloxyphenyl)-6,7-dimethoxy-2-methylaminoquinazoline] | 116 to 118 |
| CNc1nc(-c2cccc(N3C(=O)c4ccccc4C3=O)c2)c2cc(OC)c(OC)cc2n1 [Example 37, 6,7-Dimethoxy-2-methylamino-4-(3-phthalimidephenyl) quinazoline] | 280 to 282 |
| CNc1nc(-c2cccc(-c3ccccc3)c2)c2cc(OC)c(OC)cc2n1 [Example 46, 4-(3-Biphenylyl)-6,7-dimethoxy-2-methylaminoquinazoline] | 183 to 185 |
| CNc1nc(-c2cccc(NC(=O)CCc3ccccc3)c2)c2cc(OC)c(OC)cc2n1 [Example 7, 6,7-Dimethoxy-2-methylamino-4-[3-(3-phenylpropanoylamino)phenyl]quinazoline] | 180 to 182 |

Source: US6352989B1, “Nitrogenous heterocyclic derivatives and medicine thereof” (Eisai Co., Ltd., priority 1998, dated 2002)
